Laboratory results: patent US11535643B2, “Macrolides with modified desosamine sugars and uses thereof” (President and Fellows of Harvard College, priority 2015, dated 2022)
≈ marks a conversion by molar mass, not a printed value.

Key:
Type in all cases: cell-based
S. aureus = assay: Broth dilution MIC determination (CLSI) against S. aureus strains; conditions: for MIC S. aureus ATCC29213: ATCC29213, Strain No. MP-12; for MIC S. aureus ATCCBAA-977: ATCCBAA-977, Strain No. MP-17; for MIC S. aureus (MRSA) GISA USA600: GISA USA600, Strain No. MP-619 UNT-120; for MIC S. aureus (MRSA) ST-228 cErm: Strain No. MP-513; for MIC S. aureus (MRSA) USA100: USA100, Strain No. MP-618 UNT-096; for MIC S. aureus (MRSA) USA300: USA300, Strain No. MP-549; for MIC S. aureus (MRSA) ermA phenotype: Strain No. MP-620 UNT-146
Procedure, shortened: (§1)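 Azithromycin and solithromycin were run alongside as controls. Strain panels included multidrug-resistant isolates, with emphasis on macrolide-resistance mechanisms, and MICs followed CLSI broth dilution procedures.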

S. pneumoniae = assay: Broth dilution MIC determination (CLSI) against S. pneumoniae strains; conditions: for MIC S. pneumoniae ATCC49619: ATCC49619, Strain No. MP-21
Procedure, shortened: as §1

S. pyogenes = assay: Broth dilution MIC determination (CLSI) against S. pyogenes strains; conditions: for MIC S. pyogenes ATCC19615: ATCC19615, Strain No. MP-19; for MIC S. pyogenes mac resistant: Strain No. MP-625 UNT-014
Procedure, shortened: as §1

E. faecalis = assay: Broth dilution MIC determination (CLSI) against E. faecalis strains; conditions: for MIC E. faecalis ATCC29212: ATCC29212, Strain No. MP-24; for MIC E. faecalis van resistant: Strain No. UNT-039
Procedure, shortened: as §1

E. coli = assay: Broth dilution MIC determination (CLSI) against E. coli strains; conditions: for MIC E. coli ATCC25922: ATCC25922, Strain No. MP-4; for MIC E. coli ATCC25922:tolC: Strain No. MP-9; for MIC E. coli clinical: Strain No. MP541; for MIC E. coli clinical-cErm: Strain No. MP532
Procedure, shortened: as §1

A. baumannii = assay: Broth dilution MIC determination (CLSI) against A. baumannii strains; conditions: for MIC A. baumannii ATCC19606: ATCC19606, Strain No. MP-15
Procedure, shortened: as §1

K. pneumoniae = assay: Broth dilution MIC determination (CLSI) against K. pneumoniae strains; conditions: for MIC K. pneumoniae ATCC10031: ATCC10031, Strain No. MP-14
Procedure, shortened: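 CLSI broth-dilution MICs across a panel including multidrug- and macrolide-resistant strains, with azithromycin and solithromycin as control compounds.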

P. aeruginosa = assay: Broth dilution MIC determination (CLSI) against P. aeruginosa strains; conditions: for MIC P. aeruginosa ATCC27853: ATCC27853, Strain No. MP-3; for MIC P. aeruginosa PAO1: PAO1, Strain No. MP-7; for MIC P. aeruginosa PAO1:mex: Strain No. MP-8
Procedure, shortened: as §1

Compound	MIC S. aureus ATCC29213 (S. aureus) [µg/mL]	MIC S. aureus ATCCBAA-977 (S. aureus) [µg/mL]	MIC S. aureus (MRSA) GISA USA600 (S. aureus) [µg/mL]	MIC S. aureus (MRSA) ST-228 cErm (S. aureus) [µg/mL]	MIC S. aureus (MRSA) USA100 (S. aureus) [µg/mL]	MIC S. aureus (MRSA) USA300 (S. aureus) [µg/mL]	MIC S. aureus (MRSA) ermA phenotype (S. aureus) [µg/mL]	MIC S. pneumoniae ATCC49619 (S. pneumoniae) [µg/mL]	MIC S. pneumoniae mefA (S. pneumoniae; Strain No. MP-626 UNT-038) [µg/mL]	MIC S. pneumoniae mefA (S. pneumoniae; Strain No. MP-627 UNT-039) [µg/mL]	MIC S. pyogenes ATCC19615 (S. pyogenes) [µg/mL]	MIC S. pyogenes mac resistant (S. pyogenes) [µg/mL]	MIC E. faecalis ATCC29212 (E. faecalis) [µg/mL]	MIC E. faecalis van resistant (E. faecalis) [µg/mL]	MIC E. coli ATCC25922 (E. coli) [µg/mL]	MIC E. coli ATCC25922:tolC (E. coli) [µg/mL]	MIC E. coli clinical (E. coli) [µg/mL]	MIC E. coli clinical-cErm (E. coli) [µg/mL]	MIC A. baumannii ATCC19606 (A. baumannii) [µg/mL]	MIC A. baumannii clinical (A. baumannii; Strain No. MP576) [µg/mL]	also measured
CCC1OC(=O)C(C)C(=O)C(C)C(OC2OC(CNCc3ccc(F)cc3)CC(N(C)C)C2O)C(C)(OC)CC(C)CNC(C)C2N(CCCCn3cc(-c4cccc(N)c4)nn3)C(=O)OC12C (stereo not drawn) [FSM-120391]	4 (≈ 4.21 µM)	4 (≈ 4.21 µM)	>64	>64	>64	4 (≈ 4.21 µM)	>64	<0.03	0.06 (≈ 0.0631 µM)	0.125 (≈ 0.131 µM)	<0.03	0.5 (≈ 0.526 µM)	1 (≈ 1.05 µM)	>64	4 (≈ 4.21 µM)	0.25 (≈ 0.263 µM)	8 (≈ 8.41 µM)	>64	64 (≈ 67.3 µM)	>64	MIC A. baumannii clinical (A. baumannii; Strain No. MP577): 16 µg/mL (≈ 16.8 µM); MIC K. pneumoniae ATCC10031 (K. pneumoniae): 4 µg/mL (≈ 4.21 µM); MIC K. pneumoniae clinical (K. pneumoniae; Strain No. MP546): 64 µg/mL (≈ 67.3 µM); MIC K. pneumoniae clinical (K. pneumoniae; Strain No. MP548): 32 µg/mL (≈ 33.6 µM); MIC P. aeruginosa ATCC27853 (P. aeruginosa): 64 µg/mL (≈ 67.3 µM); MIC P. aeruginosa PAO1 (P. aeruginosa): >64 µg/mL; MIC P. aeruginosa PAO1:mex (P. aeruginosa): 16 µg/mL (≈ 16.8 µM)
CCC1OC(=O)C(C)C(=O)C(C)C(OC2OC(C)CC(n3ccnc3)C2O)C(C)(OC)CC(C)CNC(C)C2N(CCCCn3cc(-c4cccc(N)c4)nn3)C(=O)OC12C (stereo not drawn) [FSM-120394]	>64	>64	>64	>64	>64	>64	>64	0.5 (≈ 0.588 µM)	0.5 (≈ 0.588 µM)	0.25 (≈ 0.294 µM)	0.5 (≈ 0.588 µM)	4 (≈ 4.7 µM)	4 (≈ 4.7 µM)	>64	>64	16 (≈ 18.8 µM)	>64	>64	64 (≈ 75.2 µM)	>64	MIC A. baumannii clinical (A. baumannii; Strain No. MP577): >64 µg/mL; MIC K. pneumoniae ATCC10031 (K. pneumoniae): 16 µg/mL (≈ 18.8 µM); MIC K. pneumoniae clinical (K. pneumoniae; Strain No. MP546): >64 µg/mL; MIC K. pneumoniae clinical (K. pneumoniae; Strain No. MP548): >64 µg/mL; MIC P. aeruginosa ATCC27853 (P. aeruginosa): >64 µg/mL; MIC P. aeruginosa PAO1 (P. aeruginosa): >64 µg/mL; MIC P. aeruginosa PAO1:mex (P. aeruginosa): >64 µg/mL
